Results taken from patent EP0337503B1, “Fumigation methods and compositions” (Entek Corporation, priority 1983, dated 1984).

Assays:
[1] = Rate of carbon disulfide loss from solutions, nitrogen bubbling, mass spectrometer; format: physicochemical; settings: undiluted: Prep. 1 100%; pure carbon disulfide for comparison
Experimental: The rate at which carbon disulfide is lost from diluted ammonium thiocarbonate compositions is determined by bubbling nitrogen through the solutions, and measuring the carbon disulfide content of the gas which leaves the solution, using a mass spectrometer.
In the determination, the solution, corresponding to that of Preparation 1 (containing 14.1 percent by weight carbon disulfide), is compared to pure carbon disulfide, and to serial dilutions of the Preparation 1 solution with water, which prepared 10, 1 and 0.1 volume percent solutions of the original composition.
Results are as tabulated, wherein k is the calculated first order rate constant for loss of carbon disulfide, and t is the solution half-life.

[2] = test system: root-knot nematode larvae (Meloidogyne incognita); assay: Greenhouse nematocide experiment with tomato plants, soil drench, root gall count; format: in vivo; settings: 30 days; for Gall Counts, replicate 3: control 1; for Gall Counts, Mean: control 4.0; for Gall Counts, replicate 2: control 7; for Gall Counts, replicate 1: control 4
Experimental: In the experiment, thirty containers are used, each containing about 500 grams of sterilized sandy loam soil. Each container contains one tomato plant. Each container is injected with four 5-milliliter portions of extract from nematode-infested pepper roots, one inch below the soil surface, producing an initial population of 2000 root-knot nematode larvae (Meloidogyne incognita) per container.
Ten treatments are replicated three times, each treatment consisting of drenching the soil with a solution containing the fumigant to provide the dosage of CS2 given in the following table. The solutions are diluted with sufficient water to saturate the soil. The treatments include calcium tetrathiocarbonate, stabilized ammonium tetrathiocarbonate, and carbon disulfide at three levels, plus an untreated control. After drenching, each container is allowed to stand at ambient conditions. The plants are harvested after 30 days of growth, and soil is removed from the roots by a gentle washing with water. By use of a magnifying glass, the number of root galls is counted on each plant.
Results are summarized below, wherein the "Application" represents milligrams of treatment per kilogram of soil, calculated as the thiocarbonate salt and the equivalent carbon disulfide. Gall counts are mean values from the three replicates.

nematode larvae = assay: In-vitro nematocidal test: larvae treated in aqueous suspension, injected into root zone of tomato plants, gall count; format: in vivo, Meloidogyne incognita; settings: for Gall Count, replicate 2: control 88; for Gall Count, Mean: control 89; for Gall Count, replicate 1: control 90
Experimental: The procedure of Example 2 is repeated except that potassium tetrathiocarbonate is substituted for stabilized ammonium tetrathiocarbonate and an in-vitro nematocidal test is used. In the in-vitro test, the nematode larvae are treated in aqueous suspension for 1 hour at the concentrations of fumigant given in the following table, washed twice with water, and injected into the active root zone of the tomato plants. After thirty days the roots are harvested, examined for galling, giving the results summarized below.

[3] = Effect of pH on production of CS2 from thiocarbonates in citrate-phosphate buffers, gas chromatography of air; format: physicochemical
Experimental: Pure carbon disulfide is also injected, for comparison. A syringe is used to periodically sample air in the bottle, and the air is analyzed by gas chromatography.

[4] = Decomposition in sandy loam soil at different moisture, CS2 in air space by gas chromatography; format: physicochemical; settings: hours to maximum CS2 concentration in the air space
Experimental: A sandy loam soil is placed in 1-liter glass bottles, fitted with stoppers having fluorocarbon liners and silicone rubber septa, to give a soil depth of about 4 cm. […] Thiocarbonate solution or carbon disulfide is injected near the bottom of the soil layer, the bottles are promptly sealed, and the air space in the bottles is sampled at intervals with a syringe, for gas chromatographic analysis of CS2. Results are summarized below, wherein degradation time is the number of hours required to achieve the maximum CS2 concentration in the air space.

[5] = Storage stability: loss of ability of aqueous solutions to generate carbon disulfide upon contact with strong acid; format: physicochemical; settings: aqueous solutions of tetrathiocarbonate salts, about 14 to about 16 percent by weight carbon disulfide equivalent, air-tight glass containers, 49° C.; listed as K^+
Experimental: Various tetrathiocarbonate salts are evaluated for storage stability by measuring the loss of the ability of aqueous solutions thereof to generate carbon disulfide upon contact with strong acid. Aqueous solutions of the salts listed in the following table, having an equivalent of from about 14 to about 16 percent by weight carbon disulfide, are stored in air-tight glass containers at a temperature of 49° C.

Fusarium oxysporum = assay: Fungicidal test, radial growth of mycelia colonies; format: cell-based; settings: listed as K2CS4 (9.43%CS2)
Experimental: (§1) Thiocarbonate solutions are used in a test of their fungicidal properties. Cultures of four plant pathogenic fungi are grown upon potato dextrose agar at room temperature, in diffuse natural lighting. After one week, square blocks having 2 millimeter sides are cut from the edges of actively growing mycelia spots on the agar.
(§2) The blocks are immersed in sterile deionized water, as a control, or in dilutions of thiocarbonate solutions using the sterile water, in a closed container. Subsequently, the blocks are removed and placed upon agar in clean plates, and mycelia are allowed to grow for one week.
(§3) Radial growth of mycelia colonies is measured for each of the six to eight replicate plates used for a particular fungus, and average colony radius is calculated. Percent control is defined by the following equation: Percent control =[1-((Average radius of treated plates)/(Average radius of control plates))]x100 [formula]
(§4) Concentrations given for solutions used to treat the agar blocks are expressed in grams of thiocarbonate solution per liter of diluted solution.

Phytophthora cinnamomi = assay: Fungicidal test, radial growth of mycelia colonies; format: cell-based
Experimental: as §1, §2, §3, §4

Sclerotium rolfsii = assay: Fungicidal test, radial growth of mycelia colonies; format: cell-based
Experimental: as §1, §2, §3, §4

Verticillium dahliae = assay: Fungicidal test, radial growth of mycelia colonies; format: cell-based
Experimental: as §1, §2, §3, §4

[6] = highest application: 638/89 ppm ((NH4)2CS4·(NH4)2S), 730/91 (CaCS4), 97 ppm (CS2)
[7] = lowest application: 213/30 ppm ((NH4)2CS4·(NH4)2S), 245/31 (CaCS4), 32 ppm (CS2)
[8] = middle application: 425/60 ppm ((NH4)2CS4·(NH4)2S), 490/61 (CaCS4), 65 ppm (CS2)
[9] = 10 ppm CS2, larvae treated 1 hour
[10] = 20 ppm CS2, larvae treated 1 hour
[11] = Soil Moisture 0 % of Saturation
[12] = Soil Moisture 50 % of Saturation
[13] = Soil Moisture 100 % of Saturation
[14] = 50 ppm salt (6.3 ppm CS2 equiv. CaCS4; 6.5 ppm K2CS4), larvae treated 1 hour
[15] = 100 ppm salt (12.5 ppm CS2 equiv. CaCS4; 13 ppm K2CS4), larvae treated 1 hour
[16] = 150 ppm salt (18.8 ppm CS2 equiv. CaCS4; 19.5 ppm K2CS4), larvae treated 1 hour
[17] = 1 g/l, listed as K2CS4 (9.43%CS2)
[18] = 10 g/l, listed as K2CS4 (9.43%CS2)

SMILES: S=C=S [CS2, carbon disulfide, reference compound]
- k, calculated first order rate constant for loss of carbon disulfide [1]: 2.0 (1)/(hour)
- Gall Counts, replicate 3 [2, 6]: 9
- Gall Counts, Mean [2, 6]: 20.0
- Gall Counts, replicate 2 [2, 6]: 24
- Gall Counts, replicate 1 ([2]; highest application: 638 ppm salt/89 ppm Eq. CS2 ((NH4)2CS4·(NH4)2S), 730/91 (CaCS4), 97 ppm (CS2)): 27
- Gall Counts, replicate 3 [2, 7]: 12
- Gall Counts, Mean [2, 7]: 22.0
- Gall Counts, replicate 2 [2, 7]: 23
- Gall Counts, replicate 1 ([2]; lowest application: 213 ppm salt/30 ppm Eq. CS2 ((NH4)2CS4·(NH4)2S), 245/31 (CaCS4), 32 ppm (CS2)): 31
- Gall Counts, replicate 3 [2, 8]: 33
- Gall Counts, Mean [2, 8]: 26.7
- Gall Counts, replicate 2 [2, 8]: 19
- Gall Counts, replicate 1 ([2]; middle application: 425 ppm salt/60 ppm Eq. CS2 ((NH4)2CS4·(NH4)2S), 490/61 (CaCS4), 65 ppm (CS2)): 28
- Gall Count, replicate 2 (nematode larvae; [9]): 149
- Gall Count, Mean (nematode larvae; [9]): 106.5
- Gall Count, replicate 1 (nematode larvae; [9]): 64
- Gall Count, replicate 2 (nematode larvae; [10]): 73
- Gall Count, Mean (nematode larvae; [10]): 51.0
- Gall Count, replicate 1 (nematode larvae; [10]): 29
- Half-life (minutes) for production of carbon disulfide ([3]; pH 5.2, 125 milligrams per liter of thiocarbonate ion): 1 min
- Half-life (minutes) for production of carbon disulfide ([3]; pH 6.0, 125 milligrams per liter of thiocarbonate ion): 1 min
- Half-life (minutes) for production of carbon disulfide ([3]; pH 7.0, 125 milligrams per liter of thiocarbonate ion): 1 min
- Half-life (minutes) for production of carbon disulfide ([3]; pH 8.0, 125 milligrams per liter of thiocarbonate ion, CaCS4 values above pH 7 called unreliable): 1 min
- Degradation Time [4, 11]: 3.5 h
- Degradation Time [4, 12]: 3.5 h
- Degradation Time [4, 13]: 3.5 h

SMILES: S=C(S)SS [Formula K2CS4, potassium tetrathiocarbonate]
- Gall Count, replicate 2 (nematode larvae; [14]): 66
- Gall Count, Mean (nematode larvae; [14]): 49.5
- Gall Count, replicate 1 (nematode larvae; [14]): 33
- Gall Count, replicate 2 (nematode larvae; [15]): 145
- Gall Count, Mean (nematode larvae; [15]): 171.5
- Gall Count, replicate 1 (nematode larvae; [15]): 198
- Gall Count, replicate 2 (nematode larvae; [16]): 22
- Gall Count, Mean (nematode larvae; [16]): 35.5
- Gall Count, replicate 1 (nematode larvae; [16]): 49
- Half-life (months) [5]: 2.9 months
- Percent Control Fusarium oxysporum (Fusarium oxysporum; 1 g/l): 8%
- Percent Control Fusarium oxysporum (Fusarium oxysporum; 10 g/l): 10%
- Percent Control Fusarium oxysporum (Fusarium oxysporum; 100 g/l thiocarbonate solution per liter of diluted solution): 76%
- Percent Control Phytophthora cinnamomi (Phytophthora cinnamomi; [17]): 56%
- Percent Control Phytophthora cinnamomi (Phytophthora cinnamomi; [18]): 68%
- Percent Control Phytophthora cinnamomi (Phytophthora cinnamomi; 100 g/l): 100%
- Percent Control Sclerotium rolfsii (Sclerotium rolfsii; [17]): 42%
- Percent Control Sclerotium rolfsii (Sclerotium rolfsii; [18]): 8%
- Percent Control Sclerotium rolfsii (Sclerotium rolfsii; 100 g/l): 100%
- Percent Control Verticillium dahliae (Verticillium dahliae; [17]): 27%
- Percent Control Verticillium dahliae (Verticillium dahliae; [18]): 15%
- Percent Control Verticillium dahliae (Verticillium dahliae; 100 g/l): 100%
- Degradation Time [4, 11]: 2 h
- Degradation Time [4, 12]: 5 h
- Degradation Time [4, 13]: 48 h
